Experimental data taken from US8916561B2, “Substituted quinoxaline compounds for the inhibition of PASK” (BioEnergenix, LLC, priority 2011, dated 2014).

Experiments:
PASK (Invitrogen) = target: T1, PASK (Invitrogen) (Homo sapiens, UniProt Q96RG2); experiment: PAS Kinase FRET Assay; format: biochemical; conditions: TR-FRET (665 nm/615 nm), Ulight-peptide substrate; read-out: IC50 Kinase Domain
T1 construct: IC50 Kinase Domain; purchased Invitrogen
From the text: The aim of the FRET assay is to determine the inhibition potential of test compounds on targeted kinase. This assay platform provides a homogenous screening method for measuring kinase activity by quantitating the amount of phospho-substrate in solution following a kinase reaction.
In the presence of kinase and ATP, the Ulight-peptide is phosphorylated and captured by an anti-phospho-substrate antibody, which brings the Eu chelate donor and Ulight acceptor dyes into close proximity. Upon excitation at 340 nm, the Eu chelate transfers its energy to the Ulight dye, resulting in a fluorescent light emission at 665 nm.
Titration of kinase at 1 mM ATP was achieved via the following protocol. After making serial three-fold dilutions of PASK (Invitrogen) in reaction buffer across the plate; 5 μl of kinase dilution and 5 μl substrate/ATP mix were added to the wells of the white Optiplate-384 (PerkinElmer). The contents of the plate were incubated at RT for 1 h. The reaction was stopped by adding 5 μl of stop solution to each test well followed by mixing and incubation at RT for 10 minutes. 5 μl of detection mix (detection antibody diluted in detection butler) was added; the contents of the plate were mixed and then incubated in the dark for 1 hour at RT. The signal was recorded at TR-FRET mode (665 nm/615 nm), The results were graphed to calculate the EC50.
Titration of ATP at the EC50 concentration of kinase to determine ATP Km,app. was performed using the following method. After making serial dilutions of ATP (Invitrogen), 5 μl of ATP dilution and 5 μl substrate/kinase mix were added to the wells of the white Optiplate-384 (PerkinElmer). The contents of the plate were and incubated at RT for 1 h. The reaction was stopped by adding 5 μl of stop solution to each test well followed by mixing and incubation at RT for 10 minutes. 5 μl of detection mix (detection antibody diluted in detection buffer) was added; the contents of the plate were mixed and then incubated in the dark for 1 hour at RT. The signal was recorded at TR-FRET mode (665 nm/615 nm). The results were graphed to calculate the EC50 as the ATP Km,app.
Compound screening was done via the following method. 10 mM stock solution of test compound in DMSO was prepared by dissolving test compound in DMSO at RT for 1 hour, and then sonicating at 100% output for 8 minutes. If compound is not soluble under this condition, it was diluted to 3 mM. Kinase reaction buffer was prepared containing 10 mM MgCl2, 50 mM HEPES, 1 EGTA, 0.01% TWEEN-20, 2 mM WT. Serial dilutions of the test compounds were prepared at 4× final assay concentrations using Freedom EVO200® dispensing system as follows: 12×10^−5M, 4×10^−5 M, 1.33×10^−5M, 4.44×10^−6 M. 1.48×10^−6 M, 4.92×10^−7 M, 1.65×10^−7 M, […], 1.82×10^−8 M, 6.09×10^−9, 2.03×10^−9 M. Test compounds (2.5 μl at 4× the final assay concentration) was added to wells using Freedom EVO200® dispensing system. As a positive control, 2.5 μl of positive compound was added to assay wells, and 2.5 μl of DMSO to assay wells as vehicle control. Kinase solution was prepared in reaction buffer at 2× final assay concentration. Kinase solution (5 μl) was added to each well of the assay plate. The substrate and ATP solution was prepared in kinase reaction buffer at 4× final assay concentration. The kinase reaction was started by adding 2.5 μl of substrate+ATP mix solution to each well of the assay plate. The plate is mixed on a plate shaker; then covered and allowed to react for 2 hours in the dark at 25° C. without shaking. The reaction was stopped by adding 5 μl of stop solution to each test well followed by mixing and incubation at RT for 10 minutes in the dark. 5 μl of detection mix (detection antibody diluted in detection buffer) was added; the contents of the plate were mixed and then incubated in the dark for 1 hour at RT. The signal was recorded at TR-FRET mode (665 nm/615 nm).

PASK = target: T2, PASK (UniProt #Q96RG2; human recombinant N-terminal GST tagged construct, residues 879-1323) (Homo sapiens, UniProt Q96RG2); experiment: PASK ATP Radiochemical Assay; format: biochemical; conditions: 33P-ATP radiochemical assay, Myelin Basic Protein substrate; read-out: IC50 Kinase Domain
T2 construct: human recombinant N-terminal GST tagged construct, residues 879-1323; GST (N); host or cells: insect cells
T2 sequence (Q96RG2 879-1323, stated change not applied): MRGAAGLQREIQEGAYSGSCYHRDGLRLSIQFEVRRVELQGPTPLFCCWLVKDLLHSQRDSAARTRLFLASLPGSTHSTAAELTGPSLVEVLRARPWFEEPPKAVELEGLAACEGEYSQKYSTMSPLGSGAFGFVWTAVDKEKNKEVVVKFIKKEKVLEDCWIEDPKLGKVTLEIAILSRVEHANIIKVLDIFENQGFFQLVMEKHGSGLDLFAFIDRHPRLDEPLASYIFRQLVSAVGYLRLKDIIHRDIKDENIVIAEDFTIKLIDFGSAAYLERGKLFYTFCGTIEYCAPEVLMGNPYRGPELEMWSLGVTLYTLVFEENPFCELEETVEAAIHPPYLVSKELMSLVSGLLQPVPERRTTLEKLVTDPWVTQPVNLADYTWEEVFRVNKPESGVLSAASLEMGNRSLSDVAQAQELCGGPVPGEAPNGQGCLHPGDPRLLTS
Method: Purified PASK (UniProt #Q96RG2; human recombinant N-terminal GST tagged construct, residues 879-1323) from insect cells (final concentration 5 nM) is added to freshly prepared Base Reaction Buffer containing 20 mM HEPES (pH 7.5), 10 mM MgCl2, 1 mM EGTA, 0.02% Brij35, 0.02 mg/ml BSA, 0.1 mM Na3VO4, 2 mM DTT, 1% DMSO and Myelin Basic Protein (20 μM final). Test compounds in DMSO are then added and the mixture, followed by delivery of ^33P-ATP (specific activity 0.01 μCi/μl final) to initiate the reaction. The kinase reaction is incubated for 120 min at room temperature. The entire reaction mixture is washed through onto a P81 Phosphocellulose paper and washed three times for 10 minutes in 75 mM phosphoric acid and once in methanol prior to drying and scintillation counting.

hPASK [1] = target: T3, hPASK (Homo sapiens, UniProt Q96RG2); experiment: PAS Kinase Luminescence Assay (Kinase-Glo); format: biochemical; design: IC50 Kinase Domain; host or cells: insect cells; conditions: MBP substrate, read-out: IC50 Kinase Domain
Method: One assay for purified hPASK activity utilizes the Kinase-Glo Luminescent Kinase Assay (Promega), which quantifies the amount of ATP remaining in solution following kinase reaction. The assay is carried out in a 96-well plate format and is performed by adding a volume of Kinase-Glo Reagent (Promega, catalog #V3771) equal to the volume of solution in the well of a completed kinase reaction. Kinase-Glo reagent contains Luciferase and its substrate. After addition to a kinase reaction it allows to measure luminescence. The amount of ATP left in solution at the time of Kinase-Glo Plus addition is directly proportional to the luminescence that is measured in each well, and inversely correlated with kinase activity.
Purified hPASK from insect cells (0.02 μg) is added to a 50 μL reaction mix containing 40 mM HEPES (pH 7.0), 100 mM KCl, 5 mM MgCl2, 1 mM DTT and 1 μg of MBP protein. Inhibitory compounds are then added and the mixture is incubated for 10 min at 25° C. before adding 5 μL of ATP (at desired concentration). The reaction is allowed to proceed at 25° C. for 1 hour before adding 50 μL of Kinase-Glo reagent. The luminescence is measured as soon as 10 minutes after Kinase-Glo reagent is added.
Target sequence in this assay (Q96RG2 999-1251 limits assumed): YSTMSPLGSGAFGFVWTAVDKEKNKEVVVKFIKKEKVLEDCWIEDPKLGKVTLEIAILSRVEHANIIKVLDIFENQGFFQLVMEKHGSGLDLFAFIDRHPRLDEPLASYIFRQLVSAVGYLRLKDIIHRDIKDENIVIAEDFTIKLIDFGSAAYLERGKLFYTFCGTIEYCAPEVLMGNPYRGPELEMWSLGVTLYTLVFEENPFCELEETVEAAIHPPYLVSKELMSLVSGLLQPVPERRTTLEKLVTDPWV

hPASK [2] = target: T3, hPASK; experiment: Cell assay for hPASK activity, phospho-AKT substrate antibody; format: cell-based; design: expressed in transfected cells; host or cells: HEK293T; conditions: HEK293T cells transfected with V5-tagged PASK, phospho-AKT substrate antibody Western blot
Method: The assay applies the ability of PASK to autophoshorylate in vivo on the sequence recognized by phospho-Akt substrate antibody (110B7E, Cell Signaling). Cell line HEK293T is transfected with vector (pcDNA 3.1-PASK) expressing V5-tagged wilde-type of PASK. Transfected cells are then treated with putative inhibitors of PASK. Twenty-four hours post treatment cells are lysed and PASK is separated from cellular proteins by immunoprecipitation with V5-conjugated beads (Sigma). PASK is released from immunocomlexes, separated on the SDS-PAGE gel and transferred on nitrocellulose membrane. Fraction of PASK phosphorylated on phospho-AKT Substrate site(s) is determined by probing with phospho-AKT antibody and normalized to total PASK level present in the same immunoprecipitates. We have shown the correlation between phosphorylation of phospho-AKT Substrate sequence and inhibition of PASK activity in vivo.
HEK293T cells are maintained and propagated in 10 cm dish in 10 ml of DMEM/10% FBS, split and re-seeded in 6 well plate (10^6 cells/well) in 2 ml of DMEM/10% FBS. Cells are transfected 18 hours post plating with lug of construct expressing wild-type of hPASK using lipofectamine 2000 according to the manufacturers protocol (Invitrogen). Cells expressing PASK are treated either with DMSO or PASK inhibitors. […] Intensities of the bands are quantitated and data normalized.
Target sequence in this assay (Q96RG2 whole entry, the tested form may be a part): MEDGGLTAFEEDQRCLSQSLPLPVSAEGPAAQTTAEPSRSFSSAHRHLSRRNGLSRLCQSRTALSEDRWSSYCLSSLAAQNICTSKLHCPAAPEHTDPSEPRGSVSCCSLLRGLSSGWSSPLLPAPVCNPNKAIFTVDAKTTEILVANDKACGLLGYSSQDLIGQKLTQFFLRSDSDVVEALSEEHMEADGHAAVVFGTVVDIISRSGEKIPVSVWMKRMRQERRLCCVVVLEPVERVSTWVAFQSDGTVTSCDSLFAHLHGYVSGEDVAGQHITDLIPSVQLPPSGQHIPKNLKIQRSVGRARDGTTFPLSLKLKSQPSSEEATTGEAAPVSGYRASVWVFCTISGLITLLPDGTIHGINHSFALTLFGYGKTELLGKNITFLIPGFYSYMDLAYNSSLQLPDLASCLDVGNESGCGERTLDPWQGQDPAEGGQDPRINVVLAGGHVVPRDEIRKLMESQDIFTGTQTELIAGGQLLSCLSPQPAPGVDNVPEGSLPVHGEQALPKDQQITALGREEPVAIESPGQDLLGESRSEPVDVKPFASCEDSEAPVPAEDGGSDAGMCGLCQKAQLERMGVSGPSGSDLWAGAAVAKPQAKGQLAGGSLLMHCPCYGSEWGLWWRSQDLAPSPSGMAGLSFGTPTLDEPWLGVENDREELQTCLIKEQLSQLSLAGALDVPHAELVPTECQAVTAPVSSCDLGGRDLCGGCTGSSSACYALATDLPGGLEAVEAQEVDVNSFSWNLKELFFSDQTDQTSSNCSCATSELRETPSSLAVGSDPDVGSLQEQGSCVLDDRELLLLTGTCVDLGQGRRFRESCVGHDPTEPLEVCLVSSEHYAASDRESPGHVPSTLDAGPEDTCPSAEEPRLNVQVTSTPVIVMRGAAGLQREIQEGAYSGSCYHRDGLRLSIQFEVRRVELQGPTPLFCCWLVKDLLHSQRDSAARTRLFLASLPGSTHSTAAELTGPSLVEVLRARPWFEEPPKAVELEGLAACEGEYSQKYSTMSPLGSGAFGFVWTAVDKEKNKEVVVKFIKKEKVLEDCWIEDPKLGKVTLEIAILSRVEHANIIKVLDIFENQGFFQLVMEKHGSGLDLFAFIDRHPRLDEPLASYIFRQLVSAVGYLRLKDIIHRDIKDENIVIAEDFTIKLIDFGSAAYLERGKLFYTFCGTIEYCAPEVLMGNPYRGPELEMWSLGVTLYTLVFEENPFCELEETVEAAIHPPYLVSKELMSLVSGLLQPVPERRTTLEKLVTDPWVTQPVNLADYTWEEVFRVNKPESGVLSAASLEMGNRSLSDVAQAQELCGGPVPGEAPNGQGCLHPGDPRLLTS

T1 sequence (Q96RG2 999-1251 limits assumed): as the sequence (Q96RG2 999-1251 limits assumed) above

Compound	IC50 (PASK (Invitrogen))	IC50 (PASK)	IC50 (hPASK [1])	IC50 (hPASK [2])
CCc1ccc(-c2nc3ccc(-c4nnn[nH]4)cc3nc2-c2ccc(CC)cc2)cc1 [Example 27, 2,3-Bis(4-ethylphenyl)-6-(1H-tetrazol-5-yl)quinoxaline]		≤ 10 µM		
CNS(=O)(=O)c1ccc2nc(-c3ccc(OC)cc3)c(-c3ccc(OC)cc3)nc2c1 [Example 36, 2,3-Bis(4-methoxyphenyl)-N-methylquinoxaline-6-sulfonamide]			> 10 µM	
CC(C)N(C)c1nc2cc(-c3nn[nH]n3)ccc2nc1-c1ccc(F)cc1 [Example 28, 3-(4-Fluorophenyl)-N-isopropyl-N-methyl-7-(2H-tetrazol-5-yl)quinoxalin-2-amine]	≤ 10 µM	≤ 10 µM		
COc1ccc(-c2nc3ccc(-c4nnn[nH]4)cc3nc2-c2ccc(OC)cc2)cc1 [Example 26, 2,3-Bis(4-methoxyphenyl)-6-(1H-tetrazol-5-yl)quinoxaline]	≤ 10 µM	≤ 10 µM		
CC(C)N(C)c1nc2cc(C(N)=O)ccc2nc1-c1ccc(F)cc1 [Example 1, 2-(4-Fluorophenyl)-3-(isopropyl(methyl)amino)quinoxaline-6-carboxamide]	≤ 10 µM	≤ 10 µM		≤ 10 µM
COc1ccc(-c2nc3ccc(NS(C)(=O)=O)cc3nc2-c2ccc(OC)cc2)cc1 [Example 34, N-(2,3-Bis(4-methoxyphenyl)quinoxalin-6-yl)methanesulfonamide]		≤ 10 µM	≤ 10 µM	
C[C@H]1CCCN1c1nc2cc(-c3nn[nH]n3)ccc2nc1-c1ccc(F)cc1 [Example 29, (S)-2-(4-Fluorophenyl)-3-(2-methylpyrrolidin-1-yl)-6-(2H-tetrazol-5-yl)quinoxaline]	≤ 10 µM	≤ 10 µM		
COc1ccc(-c2nc3ccc(S(N)(=O)=O)cc3nc2-c2ccc(OC)cc2)cc1 [Example 35, 2,3-Bis(4-methoxyphenyl)quinoxaline-6-sulfonamide]			≤ 10 µM	
CC(C)N(C)c1nc2cc(-c3nnn[nH]3)ccc2nc1-c1ccc2[nH]ncc2c1 [Example 31, 3-(1H-Indazol-5-yl)-N-methyl-N-(propan-2-yl)-7-(1H-tetrazol-5-yl)quinoxalin-2-amine]	≤ 10 µM			

Other lines, results leading:

IC50 (PASK (Invitrogen))	IC50 (PASK)	IC50 (hPASK [1])	IC50 (hPASK [2])	Compound
≤ 10 µM				Cc1[nH]c2ccc(-c3nc4ccc(-c5nnn[nH]5)cc4nc3N(C)C(C)C)cc2c1C(=O)C(F)(F)F [Example 24, 2,2,2-Trifluoro-1-(5-(3-(isopropyl(methyl)amino)-6-(1H-tetrazol-5-yl)quinoxalin-2-yl)-2-methyl-1H-indol-3-yl)ethanone]
≤ 10 µM	≤ 10 µM			Cc1cc2cc(-c3nc4ccc(-c5nnn[nH]5)cc4nc3N(C)C(C)C)ccc2[nH]1 [Example 32, N-Isopropyl-N-methyl-3-(2-methyl-1H-indol-5-yl)-7-(1H-tetrazol-5-yl)quinoxalin-2-amine]
≤ 10 µM				CC[C@@H](C)N(C)c1nc2cc(-c3nnn[nH]3)ccc2nc1-c1ccc(F)cc1 [Example 30, (R)—N-sec-Butyl-3-(4-fluorophenyl)-N-methyl-7-(1H-tetrazol-5-yl)quinoxalin-2-amine]
≤ 10 µM				CC(C)N(C)c1nc2cc(-c3nnn[nH]3)ccc2nc1-c1cc2cc(F)ccc2o1 [Example 33, 3-(5-Fluorobenzofuran-2-yl)-N-methyl-N-(propan-2-yl)-7-(1H-tetrazol-5-yl)quinoxalin-2-amine]
	≤ 10 µM			Fc1ccc(-c2nc3ccc(-c4nnn[nH]4)cc3nc2-c2ccc(F)cc2)cc1 [Example 25, 2,3-Bis(4-fluorophenyl)-6-(1H-tetrazol-5-yl) quinoxaline]
≤ 10 µM				COc1ccc(-c2nc3ccc(S(=O)(=O)O)cc3nc2-c2ccc(OC)cc2)cc1 [Example 38, 2,3-Bis(4-methoxyphenyl)quinoxaline-6-sulfonic acid]
		≤ 10 µM		COc1ccc(-c2nc3ccc(S(=O)(=O)N4CCOCC4)cc3nc2-c2ccc(OC)cc2)cc1 [Example 37, 4-(2,3-Bis(4-methoxyphenyl)quinoxalin-6-ylsulfonyl)morpholine]
